Measured values published in ChEMBL document CHEMBL5120811, “Nocathiacin, Thiazomycin, and Polar Analogs Are Highly Effective Agents against Toxigenic Clostridioides difficile” (J Nat Prod, 2022).
Converted amounts (≈) assume the structure as drawn.

Legend:
Clostridioides difficile [1] = assay: Antibacterial activity against Clostridioides difficile assessed as inhibition of bacterial growth by CLSI based agar dilution susceptibility analysis; assay type: functional
Bacteroides fragilis = assay: Antibacterial activity against Bacteroides fragilis ATCC 25285 assessed as inhibition of bacterial growth by CLSI based agar dilution susceptibility analysis; assay type: functional
[2] = Selectivity ratio of MIC for Bacteroides fragilis ATCC 25285 to MIC for Clostridioides difficile; assay type: functional
Clostridioides difficile [3] = assay: Antibacterial activity against Clostridioides difficile SM8-6865 in CDAD golden hamster model assessed as protection from lethal infection at 6.25 mg/kg, po administered twice daily for 4 days; assay type: functional; details: time 4 day
Clostridioides difficile [4] = assay: Antibacterial activity against Clostridioides difficile SM8-6865 in CDAD golden hamster model assessed as log reduction in cecum bacterial content at 6.25 mg/kg, po administered twice daily for 4 days; assay type: functional; details: time 4 day
[5] = Drug concentration in golden hamster caecum at 6.25 mg/kg, po measured after 1 hr by LC-MS/MS analysis; assay type: ADME, organism-based, Mesocricetus auratus; details: read-out: Ct
[6] = Drug concentration in golden hamster caecum at 6.25 mg/kg, po measured after 24 hrs by LC-MS/MS analysis; assay type: ADME, organism-based, Mesocricetus auratus; details: read-out: Ct
Clostridioides difficile [7] = assay: Antibacterial activity against Clostridioides difficile SM8-6865 in CDAD golden hamster model assessed as protection from lethal infection at 0.39 o 1.56 mg/kg, po administered twice daily for 4 days; assay type: functional; details: time 4 day
Clostridioides difficile [8] = assay: Antibacterial activity against Clostridioides difficile SM8-6865 in CDAD golden hamster model assessed as protection from lethal infection at 1.56 mg/kg, po administered twice daily for 4 days; assay type: functional; details: time 4 day
Clostridioides difficile [9] = assay: Antibacterial activity against Clostridioides difficile assessed as inhibition of bacterial growth incubated for 18 to 24 hrs by broth microdilution method; assay type: functional; details: time 18-24 hrs
Clostridioides difficile [10] = assay: Antibacterial activity against Clostridioides difficile SM8-6865 in CDAD golden hamster model assessed as log reduction in cecum bacterial content at 1.56 mg/kg, po administered twice daily for 4 days; assay type: functional; details: time 4 day
[11] = Toxicity in Clostridioides difficile SM8-6865 infected golden hamster model assessed as survival at 1.56 mg/kg, po administered once daily for 4 days; assay type: organism-based, Mesocricetus auratus; details: in vivo, 96 h, time 4 day
Clostridioides difficile [12] = assay: Antibacterial activity against Clostridioides difficile SM8-6865 in CDAD golden hamster model assessed as log reduction in cecum bacterial content at 1.56 mg/kg, po administered once daily for 4 days; assay type: functional; details: time 4 day
Clostridioides difficile [13] = assay: Antibacterial activity against Clostridioides difficile SM8-6865 in CDAD golden hamster model assessed as protection from lethal infection at 1.56 mg/kg, po administered once daily for 4 days; assay type: functional; details: time 4 day

Compound | MIC50 (Clostridioides difficile [1]) [µg/mL] | MIC (Bacteroides fragilis) [µg/mL] | Selectivity ratio [2] | also measured
C=C(NC(=O)c1csc(-c2nc3c(cc2O)-c2nc(cs2)C(=O)N[C@@H]([C@@H](C)O)C(=O)N/C(=C(\C)OC)c2nc(cs2)C(=O)N[C@@H]2c4nc(cs4)C(=O)N[C@@H](COC(=O)c4c5c6c(cccc6n4O)COC(=O)[C@@H](O[C@H]4C[C@]6(C)OCN(C)[C@@H]6[C@H](C)O4)[C@H]2OC5)c2nc-3cs2)n1)C(N)=O [THIAZOMYCIN] | 0.06 (≈ 0.0418 µM) | 8 (≈ 5.57 µM) | 100 | –
Cc1ncc([N+](=O)[O-])n1CCO [METRONIDAZOLE] | ≤ 0.015 | > 16 | – | –
CCc1c(Cl)c(O)c(Cl)c(O)c1C(=O)O[C@H]1[C@H](O)[C@H](OC)[C@H](OC/C2=C\C=C\C[C@H](O)/C(C)=C/[C@H](CC)[C@@H](O[C@@H]3OC(C)(C)[C@@H](OC(=O)C(C)C)[C@H](O)[C@@H]3O)/C(C)=C/C(C)=C/C[C@@H]([C@@H](C)O)OC2=O)O[C@@H]1C [FIDAXOMICIN] | 0.5 (≈ 0.473 µM) | > 16 | – | –
CO/C(C)=C1/NC(=O)[C@H]([C@@H](C)O)NC(=O)c2csc(n2)-c2cc(O)c(-c3nc(C(=O)NCCCN4CCOCC4)cs3)nc2-c2csc(n2)[C@@H]2COC(=O)c3c4c5c(cccc5n3O)COC(=O)[C@@H](O[C@H]3C[C@](C)(O)[C@H](N(C)C)[C@H](C)O3)[C@@H](OC4)[C@H](NC(=O)c3csc1n3)c1nc(cs1)C(=O)N2 | 0.03 (≈ 0.0201 µM) | 4 (≈ 2.67 µM) | 100 | Activity (Clostridioides difficile [3]): 100%; Activity (Clostridioides difficile [4]): >5 log10CFU/g; concentration at 1 h [5]: 6560 nM; concentration at 24 h [6]: 80 nM; Activity (Clostridioides difficile [7]): 16%
C=C(NC(=O)c1csc(-c2nc3c(cc2O)-c2nc(cs2)C(=O)N[C@@H]([C@@H](C)O)C(=O)N/C(=C(\C)OC)c2nc(cs2)C(=O)N[C@@H]2c4nc(cs4)C(=O)N[C@@H](COC(=O)c4c5c6c(cccc6n4O)COC(=O)[C@@H](O[C@H]4C[C@](C)(O)[C@H](N(C)C)[C@H](C)O4)[C@H]2OC5)c2nc-3cs2)n1)C(N)=O [MJ347-81F4 A] | 0.03 (≈ 0.0209 µM) | 4 (≈ 2.78 µM) | 100 | Activity (Clostridioides difficile [3]): 100%; Activity (Clostridioides difficile [4]): >5 log10CFU/g; Activity (Clostridioides difficile [8]): 66%; concentration at 1 h [5]: 5400 nM; MIC (Clostridioides difficile [9]): 0.06 µg/mL (≈ 0.0417 µM); concentration at 24 h [6]: 190 nM; Activity (Clostridioides difficile [10]): 4 log10CFU/g
CN[C@H](CC(C)C)C(=O)N[C@H]1C(=O)N[C@@H](CC(N)=O)C(=O)N[C@H]2C(=O)N[C@H]3C(=O)N[C@H](C(=O)N[C@H](C(=O)O)c4cc(O)cc(O)c4-c4cc3ccc4O)[C@H](O)c3ccc(c(Cl)c3)Oc3cc2cc(c3O[C@@H]2O[C@H](CO)[C@@H](O)[C@H](O)[C@H]2O[C@H]2C[C@](C)(N)[C@H](O)[C@H](C)O2)Oc2ccc(cc2Cl)[C@H]1O [VANCOMYCIN] | 0.25 (≈ 0.173 µM) | 0.5 (≈ 0.345 µM) | – | Activity [11]: Non-Toxic; Activity (Clostridioides difficile [12]): >5 log10CFU/g; Activity (Clostridioides difficile [13]): 100%
CO/C(C)=C1/NC(=O)[C@H]([C@@H](C)O)NC(=O)c2csc(n2)-c2cc(OC)c(-c3nc(C(=O)NCCCN4CCOCC4)cs3)nc2-c2csc(n2)[C@@H]2COC(=O)c3c4c5c(cccc5n3O)COC(=O)[C@@H](O[C@H]3C[C@](C)(O)[C@H](N(C)C)[C@H](C)O3)[C@@H](OC4)[C@H](NC(=O)c3csc1n3)c1nc(cs1)C(=O)N2 | ≤ 0.015 | 4 (≈ 2.65 µM) | 100 | –
